From patent US11149277B2, “Method of producing enriched exosomes” (National Health Research Institutes, priority 2016, dated 2021) come the findings set out here.

Assay [1] deals with NAMECs. In words: Western blot of exosome markers and proteins in CM-P4 fractions of NAMECs. The class given is cell-based, human. Particulars: AH23848 0.4, 2, 4 μg/ml; AH6809 0.8, 4, 8 μg/ml; GW 1 μg/ml. The text has this: FIG. 2 includes graphs and blots showing analyses of GW-treated NAMEC P4 fractions. CM-P4 GW-treated NAMECs were collected and subjected to (A) NanoSight Nanoparticle Tracking Analysis (NTA) and (B) Dynamic Light Scattering/Zeta Potential Analysis (DLS). […] D: particle diameter. RN: relative number. (C) is a blot showing the amounts of the CD44 stem cell marker and the CD81, CD9, TSG101, Alix, HSP70 and GAPDH exosome markers measured in the indicated CM-P4 fractions and cell lysates. The culture media and cell lysates were collected from the same number of NAMECs treated with vehicle (Crl), GW627368X (GW) or PGE2 (1 μM) for 4 days. (D) is a blot showing the amounts of the GAPDH and CD81 exosome markers and the CD44 stem cell marker measured in the CM-P4 fraction of NAMECs (CD44hi/CD24− stem cells) or CD44lo/CD24+ non-stem cells (HMLE cells) treated with vehicle (Crl) or GW for 2 days. 1×: P4 exosome fraction released by 1×10^6 cells; 2×: P4 exosome fraction released by 2×10^6 cells. […] (E) is a blot showing that the CD44 stem cell marker and GAPDH and CD81 exosome markers were measured in the indicated P4 conditioned medium fractions of NAMECs treated with vehicle (Crl), GW627368X (GW, 1 μg/ml), AH23848 (EP4 antagonist; 0.4, 2, 4 μg/ml), or AH6809 (EP1/2/3 antagonist; 0.8, 4, 8 μg/ml). (F) is a blot showing the HSP70, GAPDH and CD81 exosome markers measured in the indicated CM-P4 of NAMECs, NAMEC-shEP4-1 cells, and NAMEC-shEP4-2 cells treated with vehicle or with doxycycline (Dox, 2 μg/ml) (top panel). Doxyclycline (Dox) induced the production EP4 shRNA in NAMEC-shEP4 cells (bottom panel).
The P4 exosome fractions and cell lysates were collected from NAMECs treated with vehicle (Crl), GW627368X (GW), or PGE2 for 4 days. 1×: P4 exosome fraction released by 2.5×10^5 cells; 5×: P4 exosome fraction released by 12.5×10^5 cells. Hg: Hg-integrin β1, Lg: Lg-integrin β1, H: H-integrin α6, L: L-integrin α6, pg: pg-LRP6, g: g-LRP6, Ng: Ng-LRP6.
(§1) The isolated human mammary epithelial stem cells (NAMECs) were cultured in mammary epithelial cell basal medium (250 ml MCDB-170, 250 ml DMEM-F12, 1.2 g sodium bicarbonate, 2.5 μg EGF, 0.25 mg Hydrocortisone, 2.5 mg insulin, 35 mg BPE) with or without containing EP4 antagonist, i.e., GW627368X (GW) at 1 μg/ml, or AH23848 (AH) at 4 μg/ml, for 4 days. The culture medium was supplied with 0.5 μg/ml of GW or 2 μg/ml of AH23848 at the third day of the culturing period. For the induction of EP4 antagonist-induced exosomes from mouse mammary epithelial cells, cells were cultured in a medium containing 10 μg/ml of GW for 4 days.
The culture media were centrifuged at 300 g for 5 min to remove cells (P1), at 2,000 g for 20 min (P2), then at 10,000 g for 30 min (P3) all at 4° C. Dead cells and cell debris were removed at 300 g (P1) and 1200 g (P2). […]
(A western blot detects proteins with antibodies after separation by electrophoresis.)

The test system of assay [2] is NAMECs. In words: NanoSight Nanoparticle Tracking Analysis of CM-P4 fractions of NAMEC culture. The class given is cell-based, human. To be noted: CM-P4 fraction, 4 days; PGE2 1 μM.
Text: FIG. 1 includes a TEM image and a graph. (A) is a TEM image of the P4 medium fraction of NAMECs treated with GW627368X (GW) for 4 days. Scale bar, 1 μm. (B) is a graph showing the number of particles in the CM-P4 fractions of NAMEC culture counted by using NanoSight Nanoparticle Tracking analysis. Top panel: Quantification of exosome release is shown as the ratio of [P4 GAPDH marker level]/[cell number]. Data are means±SEM (n=3). *P≤0.05. **P≤0.005. Bottom table: Quantification of exosome release is shown as the number of particles of the CM-P4 fractions released per cell measured by nanoparticle tracking analysis.
as §1
The culture media were centrifuged at 300 g for 5 min to remove cells (P1), at 2,000 g for 20 min (P2), then at 10,000 g for 30 min (P3) all at 4° C. Dead cells and cell debris were removed at 300 g (P1) and 1200 g (P2). Finally, exosomes (P4) were separated from the supernatant by centrifugation at 110,000 g for 60 min. The P4 exosome pellet was washed once in PBS and then re-suspended in PBS for further application.

In assay [3] the test system is NAMEC-R cells. In words: NTA of EV release from Ras-transformed NAMEC-R cells. To be noted: CM-P4, 4 days; GW 1 μg/ml; SQ 120 and 240 nM. Type of assay: cell-based. On the procedure:
Vesicles in the P4 fractions were counted using NTA. Data are means±SEM (n=6). ***P≤0.001; (B) The Alix, TSG101, CD63, CD81 and GAPDH exosome markers were measured in the CM-P4 fractions of NAMEC-R cells treated with vehicle (Crl), GW627368X (GW, 1 μg/ml), SQ 29,548 (SQ120/SQ240; 120 nM and 240 nM); (C) The mesenchymal marker N-cadherin, CSC markers and exosome markers were analyzed in the conditioned medium P4 fraction derived from equal numbers of vehicle-treated NAMEC-R cells (Crl), GW-treated NAMEC-R cells (GW, 1 μg/ml GW627368X for 4 days) and SQ 29,548-treated NAMEC-R cells (SQ120/SQ240; 120 nM and 240 nM for 4 days). The longer GAPDH(L) and CD81(L) exposures show the low, but detectable, presence of GAPDH and CD81 in the conditioned medium P4 fraction of vehicle-treated NAMEC-R cells.
We further investigated whether EP4 antagonism and TP receptor antagonism (as GW has partial affinity to the human TP receptor) affected EV release from transformed mammary epithelial stem cells. Four-day conditioned media of vehicle, GW-, or SQ (a TP antagonist)-treated Ras-transformed NAMEC mammary stem cells (NAMEC-R) were collected and subjected to differential ultracentrifugation to isolate EVs released by the cells. The numbers of vesicles in CM-P4 fractions were determined using NTA (FIG. 20, A). EP4 antagonism elicited release of ˜5000 vesicles per NAMEC-R cell. […]

With `CC(C)Oc1ccc2c(=O)c3cc(C(=O)O)ccc3oc2c1` [AH6809], the “exosome release by exosome markers in CM-P4 fractions” value in assay [1] is on record as “not significantly induced”. Same read-out and setting: the same measure for `O=C(O)CC/C=C\CC[C@H]1[C@H](N2CCOCC2)C(=O)C[C@H]1OCc1ccc(-c2ccccc2)cc1` [AH23848]: “induced in a dose-dependent manner”.

Turning to `CCCCC[C@H](O)/C=C/[C@H]1[C@H](O)CC(=O)[C@@H]1C/C=C\CCCC(=O)O` [PGE2, prostaglandin E2], the “concentration of released membrane vesicles” value in assay [2] is reported as ~0.5×10^4 particle/cell. Consider `O=C(O)CCC/C=C\C[C@@H]1[C@H](CNNC(=O)Nc2ccccc2)[C@H]2CC[C@@H]1O2` [SQ 29,548], for which the “vesicles released per cell” value in assay [3] is on record as around 1000 vesicles per cell.
